Experimental data: ChEMBL document CHEMBL5291721, “A preclinical secondary pharmacology resource illuminates target-adverse drug reaction associations of marketed drugs” (Nat Commun, 2023)

Columns and labels:
Adenosine receptor A1 = target: T1, Adenosine receptor A1 (Homo sapiens, UniProt P30542)
T1 sequence (P30542 whole entry): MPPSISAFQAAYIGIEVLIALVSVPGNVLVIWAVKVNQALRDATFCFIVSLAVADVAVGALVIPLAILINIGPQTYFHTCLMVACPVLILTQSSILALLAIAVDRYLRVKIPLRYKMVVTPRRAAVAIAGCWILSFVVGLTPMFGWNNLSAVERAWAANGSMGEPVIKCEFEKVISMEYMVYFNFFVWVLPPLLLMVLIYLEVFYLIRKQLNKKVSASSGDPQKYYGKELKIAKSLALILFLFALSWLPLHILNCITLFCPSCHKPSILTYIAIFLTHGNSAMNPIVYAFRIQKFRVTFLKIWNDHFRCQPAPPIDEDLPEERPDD

[1] = target: Gamma-aminobutyric acid receptor subunit alpha-1 (Rattus norvegicus, UniProt P62813)
Histamine H3 receptor = Histamine H3 receptor (Homo sapiens, UniProt Q9Y5N1)
[2] = target: T2, 5-hydroxytryptamine receptor 1A (Homo sapiens, UniProt P08908)
T2 sequence (P08908 whole entry): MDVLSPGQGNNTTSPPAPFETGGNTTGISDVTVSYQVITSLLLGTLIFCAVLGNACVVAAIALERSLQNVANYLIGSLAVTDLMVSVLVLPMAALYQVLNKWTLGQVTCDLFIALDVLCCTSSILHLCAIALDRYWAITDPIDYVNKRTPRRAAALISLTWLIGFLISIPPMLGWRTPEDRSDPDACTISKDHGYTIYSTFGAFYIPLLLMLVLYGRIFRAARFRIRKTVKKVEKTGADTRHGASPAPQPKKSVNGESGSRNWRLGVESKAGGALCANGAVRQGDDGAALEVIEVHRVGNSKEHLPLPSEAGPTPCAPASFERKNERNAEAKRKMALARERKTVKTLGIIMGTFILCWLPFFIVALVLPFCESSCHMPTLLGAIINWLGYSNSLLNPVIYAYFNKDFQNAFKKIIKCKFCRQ

[3] = target: T3, Amine oxidase [flavin-containing] A (Homo sapiens, UniProt P21397); type: functional
T3 sequence (P21397 whole entry): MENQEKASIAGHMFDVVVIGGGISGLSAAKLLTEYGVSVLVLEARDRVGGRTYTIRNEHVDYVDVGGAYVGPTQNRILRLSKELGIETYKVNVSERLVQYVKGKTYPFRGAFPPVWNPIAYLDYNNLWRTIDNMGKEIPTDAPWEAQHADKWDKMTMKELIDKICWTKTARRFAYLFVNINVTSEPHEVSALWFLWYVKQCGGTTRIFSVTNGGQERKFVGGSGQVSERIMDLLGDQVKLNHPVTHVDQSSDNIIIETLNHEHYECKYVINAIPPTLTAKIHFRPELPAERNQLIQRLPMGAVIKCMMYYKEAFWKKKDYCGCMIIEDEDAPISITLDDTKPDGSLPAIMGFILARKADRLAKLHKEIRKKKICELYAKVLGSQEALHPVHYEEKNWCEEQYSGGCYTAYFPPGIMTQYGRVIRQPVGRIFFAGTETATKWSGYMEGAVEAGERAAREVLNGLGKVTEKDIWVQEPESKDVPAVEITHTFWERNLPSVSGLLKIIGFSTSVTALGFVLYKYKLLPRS

[4] = target: cGMP-inhibited 3',5'-cyclic phosphodiesterase 3A (Homo sapiens, UniProt Q14432); type: functional
Progesterone receptor = target: T4, Progesterone receptor (Homo sapiens, UniProt P06401)
T4 sequence (P06401 whole entry): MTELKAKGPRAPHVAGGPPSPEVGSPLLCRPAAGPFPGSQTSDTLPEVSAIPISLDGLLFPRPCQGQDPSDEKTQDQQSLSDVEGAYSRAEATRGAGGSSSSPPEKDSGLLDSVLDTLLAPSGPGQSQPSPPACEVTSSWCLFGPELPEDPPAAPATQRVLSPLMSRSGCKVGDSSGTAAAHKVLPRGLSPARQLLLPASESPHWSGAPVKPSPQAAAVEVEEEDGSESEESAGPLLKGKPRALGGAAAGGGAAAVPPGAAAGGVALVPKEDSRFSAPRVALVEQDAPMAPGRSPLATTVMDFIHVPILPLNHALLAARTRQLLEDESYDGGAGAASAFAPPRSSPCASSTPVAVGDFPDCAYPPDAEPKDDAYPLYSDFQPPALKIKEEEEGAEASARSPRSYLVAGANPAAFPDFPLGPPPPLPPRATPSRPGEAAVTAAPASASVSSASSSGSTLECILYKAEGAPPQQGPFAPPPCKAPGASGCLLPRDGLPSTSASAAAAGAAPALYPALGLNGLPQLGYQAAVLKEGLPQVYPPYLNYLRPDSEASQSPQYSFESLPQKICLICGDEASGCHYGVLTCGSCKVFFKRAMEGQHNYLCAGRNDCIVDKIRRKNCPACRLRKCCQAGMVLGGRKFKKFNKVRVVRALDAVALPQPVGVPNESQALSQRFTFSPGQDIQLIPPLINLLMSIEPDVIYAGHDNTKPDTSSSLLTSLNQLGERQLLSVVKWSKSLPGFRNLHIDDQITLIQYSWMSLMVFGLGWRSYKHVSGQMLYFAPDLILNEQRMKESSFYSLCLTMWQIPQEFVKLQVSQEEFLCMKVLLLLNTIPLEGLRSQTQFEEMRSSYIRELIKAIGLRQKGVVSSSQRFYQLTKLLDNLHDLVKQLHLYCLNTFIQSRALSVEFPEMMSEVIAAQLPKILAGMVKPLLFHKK

[5] = target: Hydroxycarboxylic acid receptor 2 (Homo sapiens, UniProt Q8TDS4)
[6] = target: T5, Muscarinic acetylcholine receptor M5 (Homo sapiens, UniProt P08912)
T5 sequence (P08912 whole entry): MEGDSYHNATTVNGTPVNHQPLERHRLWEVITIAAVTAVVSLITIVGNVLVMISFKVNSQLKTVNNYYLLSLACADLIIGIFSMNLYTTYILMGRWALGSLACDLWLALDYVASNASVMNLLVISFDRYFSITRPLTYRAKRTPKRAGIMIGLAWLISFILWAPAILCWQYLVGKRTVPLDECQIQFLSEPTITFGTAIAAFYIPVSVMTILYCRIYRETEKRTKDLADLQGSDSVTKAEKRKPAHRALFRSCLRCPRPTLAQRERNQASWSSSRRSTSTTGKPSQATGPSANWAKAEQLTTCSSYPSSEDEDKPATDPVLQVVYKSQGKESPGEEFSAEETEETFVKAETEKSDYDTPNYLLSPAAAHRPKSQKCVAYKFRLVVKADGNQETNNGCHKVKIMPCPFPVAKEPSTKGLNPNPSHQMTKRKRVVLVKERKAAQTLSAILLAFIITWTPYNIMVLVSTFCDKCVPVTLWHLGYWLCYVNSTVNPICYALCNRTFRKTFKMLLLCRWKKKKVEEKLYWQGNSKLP
Further: assay procedure not described here.

Chain of Hydroxycarboxylic acid receptor 2 (Q8TDS4 whole entry): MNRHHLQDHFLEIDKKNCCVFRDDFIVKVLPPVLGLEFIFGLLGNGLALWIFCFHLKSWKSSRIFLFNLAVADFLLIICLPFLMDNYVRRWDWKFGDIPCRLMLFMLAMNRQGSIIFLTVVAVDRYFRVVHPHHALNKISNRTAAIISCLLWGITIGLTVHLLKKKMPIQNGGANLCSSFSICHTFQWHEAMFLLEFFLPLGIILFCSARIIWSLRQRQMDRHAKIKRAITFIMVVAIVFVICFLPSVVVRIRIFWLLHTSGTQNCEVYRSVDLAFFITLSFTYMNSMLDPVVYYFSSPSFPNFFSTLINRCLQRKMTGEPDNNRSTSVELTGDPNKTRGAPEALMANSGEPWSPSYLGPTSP
Chain of Histamine H3 receptor (Q9Y5N1 whole entry): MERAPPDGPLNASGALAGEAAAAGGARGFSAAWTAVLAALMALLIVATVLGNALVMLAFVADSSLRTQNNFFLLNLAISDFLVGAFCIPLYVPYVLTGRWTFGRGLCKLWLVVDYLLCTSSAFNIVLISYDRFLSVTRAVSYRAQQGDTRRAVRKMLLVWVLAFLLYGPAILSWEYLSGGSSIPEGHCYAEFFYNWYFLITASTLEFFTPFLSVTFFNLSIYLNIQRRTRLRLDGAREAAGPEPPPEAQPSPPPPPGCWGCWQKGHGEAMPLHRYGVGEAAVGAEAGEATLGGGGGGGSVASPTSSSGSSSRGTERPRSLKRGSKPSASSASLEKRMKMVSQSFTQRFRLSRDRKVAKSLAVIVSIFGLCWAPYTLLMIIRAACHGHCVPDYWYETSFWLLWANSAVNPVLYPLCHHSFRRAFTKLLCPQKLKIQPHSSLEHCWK
Chain of cGMP-inhibited 3',5'-cyclic phosphodiesterase 3A (Q14432 whole entry): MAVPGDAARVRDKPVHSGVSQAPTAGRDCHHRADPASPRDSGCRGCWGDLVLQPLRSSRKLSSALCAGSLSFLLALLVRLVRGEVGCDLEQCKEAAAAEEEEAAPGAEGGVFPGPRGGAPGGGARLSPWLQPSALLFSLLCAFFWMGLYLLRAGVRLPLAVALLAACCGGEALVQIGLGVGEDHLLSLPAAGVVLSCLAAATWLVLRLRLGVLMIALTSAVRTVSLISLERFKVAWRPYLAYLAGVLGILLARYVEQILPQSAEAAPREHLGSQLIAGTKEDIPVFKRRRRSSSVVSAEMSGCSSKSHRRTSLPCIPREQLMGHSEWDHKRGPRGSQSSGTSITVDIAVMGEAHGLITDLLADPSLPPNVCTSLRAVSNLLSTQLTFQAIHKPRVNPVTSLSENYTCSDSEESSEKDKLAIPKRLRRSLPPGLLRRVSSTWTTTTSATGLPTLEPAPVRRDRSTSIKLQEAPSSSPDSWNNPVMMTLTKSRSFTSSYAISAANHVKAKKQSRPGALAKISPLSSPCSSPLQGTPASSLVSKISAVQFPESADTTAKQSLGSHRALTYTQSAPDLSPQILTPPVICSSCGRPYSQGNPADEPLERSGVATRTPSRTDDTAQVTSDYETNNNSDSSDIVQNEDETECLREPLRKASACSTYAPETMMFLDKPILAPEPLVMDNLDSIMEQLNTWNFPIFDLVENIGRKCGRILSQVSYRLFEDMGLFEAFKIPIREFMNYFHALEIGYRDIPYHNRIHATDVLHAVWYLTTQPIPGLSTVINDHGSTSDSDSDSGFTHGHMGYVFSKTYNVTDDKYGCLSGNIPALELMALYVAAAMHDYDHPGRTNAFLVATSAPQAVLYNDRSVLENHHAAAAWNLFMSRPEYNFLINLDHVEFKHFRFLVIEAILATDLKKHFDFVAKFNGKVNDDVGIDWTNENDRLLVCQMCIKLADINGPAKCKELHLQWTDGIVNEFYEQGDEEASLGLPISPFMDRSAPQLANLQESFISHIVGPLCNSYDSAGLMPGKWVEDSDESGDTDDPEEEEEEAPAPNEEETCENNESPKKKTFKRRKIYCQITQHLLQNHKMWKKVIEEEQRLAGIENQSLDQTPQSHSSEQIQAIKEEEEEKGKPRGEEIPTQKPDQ
Chain of Gamma-aminobutyric acid receptor subunit alpha-1 (P62813 whole entry): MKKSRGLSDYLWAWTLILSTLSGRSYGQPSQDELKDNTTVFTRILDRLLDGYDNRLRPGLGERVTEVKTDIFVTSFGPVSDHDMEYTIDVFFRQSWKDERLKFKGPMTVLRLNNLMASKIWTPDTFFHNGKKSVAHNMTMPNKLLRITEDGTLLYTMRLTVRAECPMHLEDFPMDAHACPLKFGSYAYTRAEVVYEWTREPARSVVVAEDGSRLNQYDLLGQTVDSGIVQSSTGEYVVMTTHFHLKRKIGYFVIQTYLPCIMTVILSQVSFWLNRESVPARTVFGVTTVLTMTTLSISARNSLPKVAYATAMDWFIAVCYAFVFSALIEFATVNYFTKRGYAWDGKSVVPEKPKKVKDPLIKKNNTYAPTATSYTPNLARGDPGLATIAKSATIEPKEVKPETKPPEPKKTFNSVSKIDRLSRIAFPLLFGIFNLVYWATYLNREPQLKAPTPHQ

**Q.** With `NCCCC(O)(P(=O)(O)O)P(=O)(O)O` [ALENDRONIC ACID] as the molecule, how does the AC50 (Adenosine receptor A1) read?
**A.** Its AC50 is greater than 30 µM.

**Q.** What about the AC50 [1] of the same molecule?
**A.** Its AC50 is greater than 30 µM.

**Q.** What about the AC50 (Histamine H3 receptor) of the same molecule?
**A.** Its AC50 is greater than 30 µM.

**Q.** And the AC50 [2]?
**A.** Its AC50 is greater than 30 µM.

**Q.** What about the AC50 [3] of the same molecule?
**A.** Its AC50 is greater than 30 µM.

**Q.** What about the AC50 [4] of the same molecule?
**A.** The AC50 was greater than 30 µM.

**Q.** What about the AC50 (Progesterone receptor) of the same molecule?
**A.** The AC50 was greater than 30 µM.

**Q.** With `CCCC(C)(COC(N)=O)COC(=O)NC(C)C` (centres undefined) [CARISOPRODOL] as the molecule, how does the AC50 [5] read?
**A.** The AC50 was greater than 10 µM.

**Q.** How did the AC50 [5] turn out when `CC(=O)OCC(CCn1cnc2cnc(N)nc21)COC(C)=O` [FAMCICLOVIR] was run?
**A.** The AC50 was greater than 10 µM.

**Q.** For `COC1=C(OC)C(=O)C(CCCCCCCCCCO)=C(C)C1=O` [IDEBENONE], which AC50 [6] is on record?
**A.** The AC50 was greater than 10 µM.

**Q.** For `O=C1CN=C(c2ccccc2)c2cc(Cl)ccc2N1` [NORDAZEPAM], which AC50 [6] is on record?
**A.** The AC50 was greater than 10 µM.

**Q.** For `CC(CCc1ccccc1)NC(C)C(O)c1ccc(O)cc1` (centres undefined) [NYLIDRIN], which AC50 [6] is on record?
**A.** The AC50 was greater than 10 µM.

**Q.** How did the AC50 [6] turn out when `O=C1Nc2ccc(Cl)cc2C(c2ccccc2)=NC1O` (centres undefined) [OXAZEPAM] was run?
**A.** Its AC50 is greater than 10 µM.

**Q.** What does the source list for `C[n+]1ccccc1/C=N/O` [PRALIDOXIME]?
**A.** AC50 (Adenosine receptor A1): > 30 µM; AC50 [1]: > 30 µM; AC50 (Histamine H3 receptor): > 30 µM; AC50 [2]: > 30 µM; AC50 [3]: > 30 µM; AC50 [4]: > 30 µM; AC50 (Progesterone receptor): > 30 µM

**Q.** How did the AC50 [5] turn out when `CC(C)CC(N(C)C)C1(c2ccc(Cl)cc2)CCC1` (centres undefined) [SIBUTRAMINE] was run?
**A.** Its AC50 is greater than 10 µM.

**Q.** How did the AC50 [6] turn out when `N#C[C@@H]1CCCN1C(=O)CNC12CC3CC(CC(O)(C3)C1)C2` [VILDAGLIPTIN] was run?
**A.** The AC50 was greater than 10 µM.

**Q.** Which results are given for COLISTIN?
**A.** AC50 (Adenosine receptor A1): > 30 µM; AC50 [1]: > 30 µM; AC50 (Histamine H3 receptor): > 30 µM; AC50 [2]: > 30 µM; AC50 [3]: > 30 µM; AC50 [4]: > 30 µM; AC50 (Progesterone receptor): > 30 µM
